# Experimental data published in ChEMBL document CHEMBL4138206, “Acovenoside A Induces Mitotic Catastrophe Followed by Apoptosis in Non-Small-Cell Lung Cancer Cells” (J Nat Prod, 2017).
# Calls of active or inactive are those of the source. No cut-off for these calls is given here.
# Assays:
# A549 [1] = assay: Induction of mitochondrial dysfunction in human A549 cells assessed as cell population with mitochondrial potential loss at 100 nM after 48 hrs by JC-1 staining based flow cytometry (reference value: 7%); type: functional
# A549 [2] = assay: Induction of mitochondrial dysfunction in human A549 cells assessed as cell population with intact mitochondrial potential at 100 nM after 48 hrs by JC-1 staining based flow cytometry (reference value: 7%); type: functional
# A549 [3] = assay: Induction of intracellular ROS production in human A549 cells at 100 nM after 48 hrs by H2DCFDA staining based flow cytometry relative to control; type: functional
# CAL-12T [4] = assay: Induction of apoptosis in human CAL-12T cells assessed as increase in hypodiploid DNA content at 50 to 100 nM after 72 hrs by propidium iodide staining flow cytometry; type: functional, cell-based
# A549 [5] = assay: Induction of mitochondrial dysfunction in human A549 cells assessed as decrease in ratio of red to green fluorescence intensity at 50 nM after 48 hrs by JC-1 staining based flow cytometry; type: functional; design: scale not given: the % may be the effect or the level left
# A549 [6] = assay: Induction of apoptosis in human A549 cells assessed as activation of caspase 3/7 at 100 nM after 48 hrs using Z-DEVD-R110 as substrate by flow cytometry (reference value: 9%); type: functional
# A549 [7] = assay: Cell cycle arrest in human A549 cells assessed as accumulation at G0/G1 phase at 100 nM after 24 hrs by propidium iodide staining based flow cytometry (reference value: 61%); type: functional
# MRC5 = assay: Cytotoxicity against human MRC5 cells assessed as reduction in cell viability after 24 hrs by XTT assay; type: cell-based; details: MRC5, 24 h
# CAL-12T [8] = assay: Cell cycle arrest in human CAL-12T cells at 50 to 100 nM after 24 hrs by propidium iodide staining based flow cytometry; type: functional
# A549 [9] = assay: Induction of apoptosis in human A549 cells assessed as activation of caspase 3/7 after 48 hrs by flow cytometry; type: functional, cell-based
# [10] = target: T1, Cyclin-dependent kinase 1/cyclin B1 (Homo sapiens) (UniProt P06493+P14635); assay: Activation of CDK1/cyclinB1 in human A549 cells at 100 nM after 24 hrs by western blot analysis; type: cell-based
# HCC827 [11] = assay: Cell cycle arrest in human HCC827 cells at 50 to 100 nM after 24 hrs by propidium iodide staining based flow cytometry; type: functional
# PBMC = assay: Cytotoxicity against human PBMC cells assessed as reduction in cell viability after 48 hrs by XTT assay; type: cell-based
# A549 [12] = assay: Cell cycle arrest in human A549 cells assessed as accumulation at G2/M phase at 50 nM after 24 hrs by propidium iodide staining based flow cytometry (reference value: 18%); type: functional
# MDA-MB-231 [13] = assay: Cytotoxicity against human MDA-MB-231 cells assessed as reduction in cell viability after 48 hrs by XTT assay; type: functional, cell-based; details: MDA-MB-231, 48 h
# A549 [14] = assay: Induction of apoptosis in human A549 cells assessed as hypodiploid DNA content at 100 nM after 72 hrs by propidium iodide staining flow cytometry (reference value: 3 to 4%); type: functional
# A549 [15] = assay: Cell cycle arrest in human A549 cells assessed as accumulation at G0/G1 phase at 50 nM after 24 hrs by propidium iodide staining based flow cytometry (reference value: 61%); type: functional
# [16] = target: Cyclin-dependent kinase 1 (Homo sapiens) (UniProt P06493); assay: Activation of CDK1 in human A549 cells assessed as increase in CDK1 phosphorylation at Tyr15 residues at 100 nM after 24 hrs by western blot analysis; type: cell-based
# A549 [17] = assay: Cell cycle arrest in human A549 cells assessed as accumulation at G2/M phase at 100 nM after 24 hrs by propidium iodide staining based flow cytometry (reference value: 18%); type: functional
# A549 [18] = assay: Induction of mitotic catastrophe in human A549 cells assessed as population of cells showing increase in size at 100 nM after 24 hrs by flow cytometry (reference value: 5.7%); type: functional
# HCC827 [19] = assay: Cytotoxicity against human HCC827 cells assessed as reduction in cell viability after 48 hrs by XTT assay; type: functional, cell-based; details: HCC827, 48 h
# A549 [20] = assay: Induction of mitochondrial dysfunction in human A549 cells assessed as cell population with intact mitochondrial potential at 50 nM after 48 hrs by JC-1 staining based flow cytometry (reference value: 7%); type: functional
# [21] = target: T1, Cyclin-dependent kinase 1/cyclin B1 (Homo sapiens); assay: Activation of CDK1/cyclinB1 in human A549 cells assessed as increase in cytokinesis defects at 100 nM after 24 hrs by DAPI staining based assay; type: cell-based
# CAL-12T [22] = assay: Cytotoxicity against human CAL-12T cells assessed as reduction in cell viability after 48 hrs by XTT assay; type: functional, cell-based
# A549 [23] = assay: Induction of apoptosis in human A549 cells assessed as activation of caspase 3/7 at 50 nM after 48 hrs using Z-DEVD-R110 as substrate by flow cytometry (reference value: 9%); type: functional
# A549 [24] = assay: Induction of mitochondrial dysfunction in human A549 cells assessed as decrease in ratio of red to green fluorescence intensity at 100 nM after 48 hrs by JC-1 staining based flow cytometry; type: functional; design: scale not given: the % may be the effect or the level left
# HCC827 [25] = assay: Induction of apoptosis in human HCC827 cells assessed as increase in hypodiploid DNA content at 50 to 100 nM after 72 hrs by propidium iodide staining flow cytometry; type: functional, cell-based
# MDA-MB-231 [26] = assay: Cytotoxicity against human MDA-MB-231 cells assessed as reduction in cell viability after 24 hrs by XTT assay; type: functional, cell-based; details: MDA-MB-231, 24 h
# A549 [27] = assay: Induction of apoptosis in human A549 cells assessed as hypodiploid DNA content at 50 nM after 72 hrs by propidium iodide staining flow cytometry (reference value: 3 to 4%); type: functional
# A549 [28] = assay: Cell cycle arrest in human A549 cells assessed as accumulation at G2/M phase after 24 hrs by propidium iodide staining based flow cytometry; type: functional
# [29] = target: T1, Cyclin-dependent kinase 1/cyclin B1 (Homo sapiens); assay: Activation of CDK1/cyclinB1 in human A549 cells at 50 to 100 nM after 12 hrs by western blot analysis; type: cell-based
# A549 [30] = assay: Cytotoxicity against human A549 cells assessed as reduction in cell viability pretreated with ROS scavenger tempol for 1 hr followed by compound addition measured after 24 hrs by XTT assay; type: functional, cell-based
# A549 [31] = assay: Induction of apoptosis in human A549 cells assessed as hypodiploid DNA content at 10 nM after 72 hrs by propidium iodide staining flow cytometry (reference value: 3 to 4%); type: functional
# A549 [32] = assay: Induction of intracellular ROS production in human A549 cells at 50 nM after 48 hrs by H2DCFDA staining based flow cytometry relative to control; type: functional
# A549 [33] = assay: Induction of mitochondrial dysfunction in human A549 cells assessed as cell population with mitochondrial potential loss at 50 nM after 48 hrs by JC-1 staining based flow cytometry (reference value: 7%); type: functional
# A549 [34] = assay: Cytotoxicity against human A549 cells assessed as reduction in cell viability after 24 hrs by XTT assay; type: functional, cell-based; details: A549, 24 h
# A549 [35] = assay: Cytotoxicity against human A549 cells assessed as reduction in cell viability pretreated with ROS scavenger ebselen for 1 hr followed by compound addition measured after 24 hrs by XTT assay; type: functional, cell-based
# A549 [36] = assay: Cytotoxicity against human A549 cells assessed as reduction in cell viability after 48 hrs by XTT assay; type: functional, cell-based; details: A549, 48 h
# A549 [37] = assay: Cytotoxicity against human A549 cells assessed as reduction in cell viability pretreated with ROS scavenger edaravone for 1 hr followed by compound addition measured after 24 hrs by XTT assay; type: functional, cell-based
# T1 sequence (P06493 whole entry, looked up): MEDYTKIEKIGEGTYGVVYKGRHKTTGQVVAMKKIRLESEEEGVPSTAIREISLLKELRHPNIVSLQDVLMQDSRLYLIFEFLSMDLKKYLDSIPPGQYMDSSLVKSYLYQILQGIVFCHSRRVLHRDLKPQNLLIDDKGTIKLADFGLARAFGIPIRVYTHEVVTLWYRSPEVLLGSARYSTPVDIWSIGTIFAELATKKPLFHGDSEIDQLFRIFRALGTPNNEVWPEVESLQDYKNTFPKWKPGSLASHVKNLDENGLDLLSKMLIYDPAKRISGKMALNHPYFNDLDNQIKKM
# T1 sequence (P14635 whole entry, looked up): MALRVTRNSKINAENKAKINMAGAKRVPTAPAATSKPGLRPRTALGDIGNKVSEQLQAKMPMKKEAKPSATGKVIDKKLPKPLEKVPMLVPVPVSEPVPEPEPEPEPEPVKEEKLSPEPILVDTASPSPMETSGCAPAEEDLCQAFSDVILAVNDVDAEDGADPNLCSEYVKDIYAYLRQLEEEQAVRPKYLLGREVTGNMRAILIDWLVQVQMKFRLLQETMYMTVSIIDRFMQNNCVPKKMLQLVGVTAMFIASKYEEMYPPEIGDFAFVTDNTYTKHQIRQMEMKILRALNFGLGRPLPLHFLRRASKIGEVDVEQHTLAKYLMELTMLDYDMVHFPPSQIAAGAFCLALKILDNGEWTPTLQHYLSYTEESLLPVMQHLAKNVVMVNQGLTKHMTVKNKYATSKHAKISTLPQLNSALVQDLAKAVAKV
# Chain of Cyclin-dependent kinase 1 (Homo sapiens) (P06493 whole entry, looked up): as the sequence (P06493 whole entry, looked up) above
smiles,measurement,setting,value
COc1cccc2c1C(=O)c1c(O)c3c(c(O)c1C2=O)C[C@@](O)(C(=O)CO)C[C@@H]3O[C@H]1C[C@H](N)[C@H](O)[C@H](C)O1 [DOXORUBICIN],Activity,A549 [1],8.2%
same,Activity,A549 [2],12.4%
CO[C@H]1[C@H](O)[C@H](O[C@@H]2C[C@H]3CC[C@@H]4[C@H](CC[C@]5(C)[C@@H](C6=CC(=O)OC6)CC[C@]45O)[C@@]3(C)[C@H](O)C2)O[C@@H](C)[C@@H]1O,fold change (FC),A549 [3],2.8
same,Activity,CAL-12T [4],Active
same,Activity,A549 [5],20%
same,Activity,A549 [6],65%
same,Activity,A549 [7],31%
same,IC50,MRC5,> 1000 nM
same,Activity,CAL-12T [8],Active
same,Activity,A549 [9],Dose-dependent effect
same,Activity,[10],Active
same,Activity,HCC827 [11],inactive
same,Activity,PBMC,Non-Toxic
same,Activity,A549 [12],29%
same,IC50,MDA-MB-231 [13],1500 nM
same,Activity,A549 [14],51 - 55%
same,Activity,A549 [15],50%
same,Activity,[16],Active
same,Activity,A549 [17],43%
same,Activity,A549 [18],29.8%
same,IC50,HCC827 [19],701 nM
same,Activity,A549 [20],9%
same,Activity,[21],34.3%
same,IC50,CAL-12T [22],161 nM
same,Activity,A549 [23],38%
same,Activity,A549 [24],40%
same,Activity,A549 [1],9%
same,Activity,HCC827 [25],Active
same,IC50,MDA-MB-231 [26],4200 nM
same,Activity,A549 [27],13 - 17%
same,Activity,A549 [28],Dose-dependent effect
same,Activity,[29],Active
same,Activity,A549 [30],Active
same,Activity,A549 [31],3%
same,fold change (FC),A549 [32],1.5
same,Activity,A549 [33],8.8%
same,Activity,A549 [2],13.9%
same,IC50,A549 [34],95 nM
same,Activity,A549 [35],Active
same,IC50,A549 [36],68 nM
same,Activity,A549 [37],Active
